In US20240208968A1, “ALPHA V BETA 6 AND ALPHA V BETA 1 INTEGRIN INHIBITORS AND USES THEREOF” (DiCE Molecules SV, Inc., priority 2021, published 2024):
Counter-ions that a name gives are not always drawn.

How the values were obtained:
αvβ1 = αvβ1 (Homo sapiens, UniProt P05556+P06756); assay: Solid Phase Integrin αvβ1 Assay; assay type: binding
Method in brief: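 Compound competes for αvβ1 binding to immobilized TGFb1-LAP (1 µg/mL coat) in Mn2+ (1 mM MnCl2), 2% BSA binding buffer over 90 min at room temperature, integrin added at 0.2 µg/mL. Read-out: streptavidin-HRP/TMB; IC50 from Levenberg-Marquardt four-parameter fit.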

αvβ6 = αvβ6 (Homo sapiens, UniProt P06756+P18564); assay: Solid Phase Integrin αvβ6 Assay; assay type: binding
Method in brief: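 Inhibition of αvβ6 binding to immobilized recombinant TGFb1-LAP (1 μg/mL coating), 1 h at room temperature with 1 mM MnCl2 in BSA/TBST buffer, integrin diluted to 0.2 μg/mL before addition. Streptavidin-HRP/TMB read-out; four-parameter logistic fitting gave IC50.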

αvβ6, sequence (P06756 31-992 limits assumed): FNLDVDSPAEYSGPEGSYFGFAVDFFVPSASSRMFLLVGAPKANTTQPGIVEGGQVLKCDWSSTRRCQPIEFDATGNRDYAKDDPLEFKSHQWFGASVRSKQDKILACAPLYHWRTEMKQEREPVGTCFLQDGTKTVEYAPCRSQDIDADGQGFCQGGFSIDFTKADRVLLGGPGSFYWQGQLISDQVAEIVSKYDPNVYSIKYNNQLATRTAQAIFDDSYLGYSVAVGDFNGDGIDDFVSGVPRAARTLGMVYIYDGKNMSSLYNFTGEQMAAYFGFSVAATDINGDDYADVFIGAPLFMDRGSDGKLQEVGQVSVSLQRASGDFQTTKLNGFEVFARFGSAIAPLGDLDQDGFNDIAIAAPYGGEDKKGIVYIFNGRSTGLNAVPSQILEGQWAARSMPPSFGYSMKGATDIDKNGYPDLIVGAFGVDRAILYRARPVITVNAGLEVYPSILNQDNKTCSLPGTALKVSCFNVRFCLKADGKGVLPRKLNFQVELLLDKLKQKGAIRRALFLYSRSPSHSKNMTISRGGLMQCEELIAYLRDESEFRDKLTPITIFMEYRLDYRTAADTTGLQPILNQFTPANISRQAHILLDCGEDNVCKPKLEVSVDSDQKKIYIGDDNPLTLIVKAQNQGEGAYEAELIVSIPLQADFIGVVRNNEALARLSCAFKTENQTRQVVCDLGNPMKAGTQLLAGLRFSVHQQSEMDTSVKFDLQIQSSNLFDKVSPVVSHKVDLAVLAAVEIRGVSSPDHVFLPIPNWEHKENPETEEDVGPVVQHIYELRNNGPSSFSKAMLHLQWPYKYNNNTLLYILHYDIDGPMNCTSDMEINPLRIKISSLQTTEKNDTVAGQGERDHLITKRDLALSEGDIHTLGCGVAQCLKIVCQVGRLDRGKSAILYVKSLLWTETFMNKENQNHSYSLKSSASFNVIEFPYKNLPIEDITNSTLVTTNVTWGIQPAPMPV
αvβ6, sequence (P18564 22-707 limits assumed): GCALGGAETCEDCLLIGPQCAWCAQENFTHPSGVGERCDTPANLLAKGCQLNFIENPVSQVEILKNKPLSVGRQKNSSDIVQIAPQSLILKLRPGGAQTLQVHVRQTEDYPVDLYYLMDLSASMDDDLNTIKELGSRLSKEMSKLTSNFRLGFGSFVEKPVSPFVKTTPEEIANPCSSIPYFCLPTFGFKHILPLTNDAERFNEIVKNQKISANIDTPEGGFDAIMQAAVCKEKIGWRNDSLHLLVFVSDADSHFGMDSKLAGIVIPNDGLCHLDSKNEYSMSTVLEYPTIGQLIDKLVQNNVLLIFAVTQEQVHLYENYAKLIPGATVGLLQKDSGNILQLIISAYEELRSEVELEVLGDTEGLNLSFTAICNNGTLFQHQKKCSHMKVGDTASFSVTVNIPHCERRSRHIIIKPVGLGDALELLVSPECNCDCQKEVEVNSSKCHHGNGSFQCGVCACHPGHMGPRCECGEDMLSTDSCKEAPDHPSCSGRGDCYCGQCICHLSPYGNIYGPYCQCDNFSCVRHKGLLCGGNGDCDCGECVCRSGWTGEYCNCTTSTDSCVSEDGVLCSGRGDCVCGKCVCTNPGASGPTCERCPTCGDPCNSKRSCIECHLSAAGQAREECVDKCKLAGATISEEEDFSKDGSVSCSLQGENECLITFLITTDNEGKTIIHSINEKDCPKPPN
αvβ1, sequence (P06756 31-992 limits assumed): as the sequence (P06756 31-992 limits assumed) above
αvβ1, sequence (P05556 21-728 limits assumed): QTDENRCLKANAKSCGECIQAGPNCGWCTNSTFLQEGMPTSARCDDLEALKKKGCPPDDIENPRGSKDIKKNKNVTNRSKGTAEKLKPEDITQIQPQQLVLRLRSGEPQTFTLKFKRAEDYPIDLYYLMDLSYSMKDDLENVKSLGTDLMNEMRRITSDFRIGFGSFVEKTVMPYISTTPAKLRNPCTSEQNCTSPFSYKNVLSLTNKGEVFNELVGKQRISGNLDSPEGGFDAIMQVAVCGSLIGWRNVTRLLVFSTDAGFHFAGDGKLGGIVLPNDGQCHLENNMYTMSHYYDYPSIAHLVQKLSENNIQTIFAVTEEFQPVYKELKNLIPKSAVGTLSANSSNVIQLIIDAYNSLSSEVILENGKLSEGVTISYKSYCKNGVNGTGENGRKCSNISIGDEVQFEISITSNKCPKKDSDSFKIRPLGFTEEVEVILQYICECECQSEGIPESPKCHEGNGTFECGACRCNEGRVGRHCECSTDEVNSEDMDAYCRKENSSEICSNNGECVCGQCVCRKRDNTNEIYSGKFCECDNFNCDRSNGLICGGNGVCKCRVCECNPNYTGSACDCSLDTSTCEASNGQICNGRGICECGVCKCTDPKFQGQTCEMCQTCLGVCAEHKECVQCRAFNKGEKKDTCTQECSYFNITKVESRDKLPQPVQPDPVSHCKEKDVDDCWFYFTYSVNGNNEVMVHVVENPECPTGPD

Structure (SMILES)	IC50 (αvβ1) [nM]	IC50 (αvβ6) [nM]
O=C(NC[C@H](C(=O)O)c1cccc2c1CCCC2)[C@@H]1CCCN(CCCc2ccc3c(n2)NCCC3)C1 [Compound 253-A, 3-((R)-1-(3-(5,6,7,8-tetrahydro-1,8-naphthyridin-2-yl)propyl)piperidine-3-carboxamido)-2-(5,6,7,8-tetrahydronaphthalen-1-yl)propanoic acid]	< 100	< 100
CNC(=O)[C@H]1C[C@H](C(=O)N[C@@H](CC(=O)O)c2ccccc2)CN(CCCc2ccc3c(n2)NCCC3)C1 [Compound 607]	< 100	< 100
O=C(NC[C@H](Nc1ncc(C(F)(F)F)cn1)C(=O)O)[C@@H]1CCCN(CCCc2ccc3c(n2)NCCC3)C1 [Compound 451]	< 100	< 100
COc1ccc(C(C)C)c(C(CC(=O)O)NC(=O)[C@@H]2CCCN(CCCc3ccc4c(n3)NCCC4)C2)c1 (stereo partly drawn) [Compound 210, 3-(2-isopropyl-5-methoxyphenyl)-3-((R)-1-(3-(5,6,7,8-tetrahydro-1,8-naphthyridin-2-yl)propyl)piperidine-3-carboxamido)propanoic acid hydrochloride]	100 to 1000	100 to 1000
O=C(NC[C@@H](C(=O)O)c1cccc2n[nH]cc12)[C@@H]1CCCN(CCCc2ccc3c(n2)NCCC3)C1 [Compound 319]	< 100	< 100
O=C(O)C[C@H](NC(=O)[C@@H]1CCCN(CCCc2ccc3c(n2)NCCC3)C1)c1ccc2ccccc2c1 [Compound 207, (S)-3-(naphthalen-2-yl)-3-((R)-1-(3-(5,6,7,8-tetrahydro-1,8-naphthyridin-2-yl)propyl)piperidine-3-carboxamido)propanoic acid hydrochloride]	100 to 1000	100 to 1000
O=C(NC[C@H](NC(=O)[C@@H]1CC2CCC1CC2)C(=O)O)[C@@H]1CCCN(CCCc2ccc3c(n2)NCCC3)C1 [Compound 304]	< 100	< 100
O=C(NC[C@H](Nc1ccnc2ccccc12)C(=O)O)[C@@H]1CCCN(CCCc2ccc3c(n2)NCCC3)C1 [Compound 273, (S)-2-(quinolin-4-ylamino)-3-((R)-1-(3-(5,6,7,8-tetrahydro-1,8-naphthyridin-2-yl)propyl)piperidine-3-carboxamido)propanoic acid]	< 100	< 100
O=C(O)C[C@H](NC(=O)[C@@H]1CCCN(CCCc2ccc3c(n2)NCCC3)C1)c1cccc(-n2cccc2)c1 [Compound 536]	< 100	< 100
O=C(CC[C@H](C(=O)O)c1ccccc1)N[C@H]1CCN(CCCCc2ccc3c(n2)NCCC3)C1 [Compound 424]	> 1000	> 1000
O=C(NC[C@@H](Nc1ccc(-c2ccccc2)nc1)C(=O)O)[C@@H]1CCCN(CCCc2ccc3c(n2)NCCC3)C1 [Compound 375]	< 100	< 100
O=C(CC[C@H](NC(=O)C12CCC(CC1)CC2)C(=O)O)N[C@@H]1CCN(C(=O)CCCc2ccc3c(n2)NCCC3)C1 [Compound 428]	< 100	< 100
O=C(N[C@@H](CNC(=O)[C@@H]1CCCN(CCCc2ccc3c(n2)NCCC3)C1)C(=O)O)c1ccncc1 [Compound 312]	< 100	< 100
O=C(O)C[C@H](NC(=O)[C@@H]1CCCN(CCCc2ccc3c(n2)NCCC3)C1)c1cccc(N2CC3CCC2CO3)c1 (single isomer, unassigned) [Compound 241-A]	< 100	< 100
Cc1csc2c(N[C@@H](CCO[C@@H]3CCCN(CCCc4ccc5c(n4)NCCC5)C3)C(=O)O)ncnc12 [Compound 471]	100 to 1000	100 to 1000
CN1CCc2ccc(S(=O)(=O)N3CCC[C@@H](C(=O)N[C@@H](CNC(=O)[C@@H]4CCCN(CCCc5ccc6c(n5)NCCC6)C4)C(=O)O)C3)cc21 [Compound 267, (S)-2-((R)-1-((1-methylindolin-6-yl)sulfonyl)piperidine-3-carboxamido)-3-((R)-1-(3-(5,6,7,8-tetrahydro-1,8-naphthyridin-2-yl)propyl)piperidine-3-carboxamido)propanoic acid]	< 100	< 100
O=C(O)C[C@H](NC(=O)[C@@H]1CCCN(CCCc2ccc3c(n2)NCCC3)C1)c1cnn(-c2ccccc2)c1 [Compound 616]	< 100	< 100
O=C(N[C@@H](CNC(=O)[C@@H]1CCCN(CCCc2ccc3c(n2)NCCC3)C1)C(=O)O)c1cccc(Cl)c1Cl [Compound 365]	< 100	< 100
O=C(N[C@@H](CNC(=O)[C@@H]1CCCN(CCCc2ccc3c(n2)NCCC3)C1)C(=O)O)c1cccc(Cl)c1 [Compound 373]	< 100	< 100
O=C(NC[C@@H](C(=O)O)c1cnc2c(ccn2CC2CC2)c1)[C@@H]1CCCN(CCCc2ccc3c(n2)NCCC3)C1 [Compound 326]	< 100	< 100
O=C(CC[C@@H](C(=O)O)c1ccccc1)N[C@@H]1CCN(C(=O)CCCc2ccc3c(n2)NCCC3)C1 [Compound 419]	> 1000	> 1000
C[C@H]1OCCN(c2cccc([C@H](CC(=O)O)NC(=O)[C@@H]3CCCN(CCCc4ccc5c(n4)NCCC5)C3)c2)[C@H]1C [Compound 582]	< 100	< 100
O=C(CC[C@H](NC(=O)[C@H]1CCCN1S(=O)(=O)c1ccccc1)C(=O)O)N[C@H]1CCN(CCCCc2ccc3c(n2)NCCC3)C1 [Compound 434]	< 100	< 100
O=C(O)C[C@H](CC(=O)N[C@H]1CCN(C(=O)CCCc2ccc3c(n2)NCCC3)C1)c1ccccc1 [Compound 522]	< 100	100 to 1000
O=C(O)C[C@@H](CC(=O)N[C@H]1CCN(C(=O)CCCc2ccc3c(n2)NCCC3)C1)c1ccccc1 [Compound 521]	< 100	100 to 1000

Continued, values first:

IC50 (αvβ1) [nM]	IC50 (αvβ6) [nM]	Structure (SMILES)
< 100	< 100	O=C(O)C[C@H](NC(=O)[C@@H]1CCCN(CCCc2ccc3c(n2)NCCC3)C1)c1ccccc1 [Compound 202, (S)-3-phenyl-3-((R)-1-(3-(5,6,7,8-tetrahydro-1,8-naphthyridin-2-yl)propyl)piperidine-3-carboxamido)propanoic acid hydrochloride]
< 100	< 100	O=C(N[C@@H](CCO[C@@H]1CCCN(CCCc2ccc3c(n2)NCCC3)C1)C(=O)O)c1ccccc1 [Compound 469]
> 1000	> 1000	O=C(O)[C@H](c1ccccc1)[C@@H](O)CO[C@@H]1CCCN(CCCc2ccc3c(n2)NCCC3)C1 [Compound 612]
> 1000	100 to 1000	O=C(O)C[C@@H](NC(=O)[C@@H]1CCCN(CCCc2ccc3c(n2)NCCC3)C1)c1cccc2c1CCC2 [Compound 211-B, 3-(2,3-dihydro-1H-inden-4-yl)-3-((R)-1-(3-(5,6,7,8-tetrahydro-1,8-naphthyridin-2-yl)propyl)piperidine-3-carboxamido)propanoic acid]
> 1000	> 1000	O=C(O)[C@H](CO[C@@H]1CCCN(CCCCc2ccc3c(n2)NCCC3)C1)c1ccccc1 [Compound 395]
< 100	> 1000	O=C(O)C[C@@H](CO[C@@H]1CCCN(CCCCc2ccc3c(n2)NCCC3)C1)c1ccccc1 [Compound 358]
100 to 1000	> 1000	O=C(O)C[C@H](CO[C@@H]1CCCN(Cc2ccc3c(n2)NCCC3)C1)c1ccccc1 [Compound 356]
< 100	< 100	CC1(C)CN(c2cc([C@@H](CO[C@@H]3CCCN(CCCc4ccc5c(n4)NCCC5)C3)CC(=O)O)ccc2Cl)CCO1 [Compound 647]
< 100	< 100	O=C(O)C[C@@H](CO[C@@H]1CCCN(CCCc2ccc3c(n2)NCCC3)C1)c1cncc(N2CCC(F)(F)CC2)c1 [Compound 649]
> 1000	> 1000	O=C(O)[C@@H](CCO[C@H]1CCCN(CCCc2ccc3c(n2)NCCC3)C1)Nc1ncnc2ccccc12 [Compound 444]
< 100	< 100	O=C(O)C[C@@H](CO[C@@H]1CCCN(CCCc2ccc3c(n2)NCCC3)C1)c1ccccc1 [Compound 297-B, 3-phenyl-4-(((R)-1-(3-(5,6,7,8-tetrahydro-1,8-naphthyridin-2-yl)propyl)piperidin-3-yl)oxy)butanoic acid]
< 100	< 100	O=C(O)C[C@@H](CO[C@@H]1CCCN(CCCc2ccc3c(n2)NCCC3)C1)c1cncc(C2CC2)c1 [Compound 513]
> 1000	> 1000	O=C(O)[C@@H](CO[C@@H]1CCCN(CCCc2ccc3c(n2)NCCC3)C1)Nc1ncnc2ccccc12 [Compound 408]
< 100	< 100	O=C(O)C[C@@H](CO[C@@H]1CCCN(CCCc2ccc3c(n2)NCCC3)C1)c1cc(C2CC2)ccc1F [Compound 508]
< 100	< 100	O=C(O)C[C@H](NC(=O)[C@@H]1CCCN(CCCc2ccc3c(n2)NCCC3)C1)c1ccc2c(c1)OCC2 [Compound 613]
> 1000	100 to 1000	O=C(O)[C@@H](CCO[C@@H]1CCCN(CCCc2ccc3c(n2)NCCC3)C1)Nc1ncnc2cc(F)c(F)cc12 [Compound 503]
< 100	< 100	O=C(N[C@@H](CCO[C@@H]1CCCN(CCCc2ccc3c(n2)NCCC3)C1)C(=O)O)c1c(F)cc(N2CCOCC2)cc1F [Compound 467]
< 100	< 100	O=C(O)C[C@H](CO[C@@H]1CCCN(CCCc2ccc3c(n2)NCCC3)C1)c1cc(F)cc(C2CC2)c1 [Compound 483]
100 to 1000	100 to 1000	O=C(O)C[C@H](CO[C@@H]1CCCN(CCCc2ccc3c(n2)NCCC3)C1)c1cccc([C@H]2CCOC2)c1 [Compound 493]
